From PubChem BioAssay (NCI)
Several values for one entry are separate records, joined by “and”; a condition that tells them apart may be missing. Identical values can stand only once.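 In this assay, cells in 96-well plates receive the compound at five concentrations for 48 hours. Endpoints are linearly interpolated between the surrounding concentrations. At the GI50, growth is halved. TGI denotes the concentration required for complete inhibition of growth.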

Legend:
Test in all cases: growth of human tumour cells (NCI), 48 h
HOP-62 NSCLC = tested on: HOP-62 NSCLC
SK-MEL-2 melanoma = tested on: SK-MEL-2 melanoma
UACC-257 melanoma = tested on: UACC-257 melanoma
HCT-15 colon = tested on: HCT-15 colon
786-0 renal = tested on: 786-0 renal
SK-MEL-28 melanoma = tested on: SK-MEL-28 melanoma
A498 renal = tested on: A498 renal
SR leukemia = tested on: SR leukemia
NCI-H460 lung = tested on: NCI-H460 lung
LOX IMVI melanoma = tested on: LOX IMVI melanoma

Compound | TGI (HOP-62 NSCLC) | TGI (SK-MEL-2 melanoma) | TGI (UACC-257 melanoma) | TGI (HCT-15 colon) | TGI (786-0 renal) | TGI (SK-MEL-28 melanoma) | TGI (A498 renal) | TGI (SR leukemia) | TGI (NCI-H460 lung) | TGI (LOX IMVI melanoma) | GI50 (HOP-62 NSCLC) | GI50 (SK-MEL-2 melanoma) | GI50 (UACC-257 melanoma) | GI50 (HCT-15 colon) | GI50 (786-0 renal) | GI50 (SK-MEL-28 melanoma) | GI50 (A498 renal) | GI50 (SR leukemia) | GI50 (NCI-H460 lung) | GI50 (LOX IMVI melanoma)
CCN(CC)CCn1[nH]c2c3ccc(=O)cc3sc3c(NCCN)ccc1c32 | 2.3 µM | 2.69 µM | 4.01 µM | 16.7 µM | 8.94 µM | 3.28 µM | 3.32 µM | 1.71 µM | 1.25 µM | 1.03 µM |  |  |  |  |  |  |  |  |  | 
O=C1c2ccccc2C(=O)c2sc(Nc3ccccc3Cl)nc21 | 33.3 µM | 34.5 µM | 21.4 µM | 29.6 µM | 27.9 µM | 30.2 µM | 32.2 µM | 12.1 µM | 29.6 µM | 6.63 µM |  |  |  |  |  |  |  |  |  | 
O=C(/C=C/C12c3ccccc3C(c3ccccc31)C1C(=O)NC(=O)C12)c1ccc(Cl)cc1 (stereo not drawn) | 3.39 µM | 3.71 µM | 3.45 µM | 4.07 µM | 3.16 µM | 3.37 µM | 2.6 µM | > 100 µM | 4.31 µM | 3 µM | 1.69 µM | 1.81 µM | 1.56 µM | 1.47 µM | 1.73 µM | 1.8 µM | 1.28 µM | 2.15 µM | 1.8 µM | 1.6 µM
COc1cc(NCCN=C(N)NC(N)=NC(C)C)c2ncccc2c1 | > 100 µM | 7.36 µM | 32.5 µM | > 100 µM | > 100 µM | > 83.8 µM | > 100 µM | > 100 µM | > 57.6 µM | 94.8 µM | 28.5 µM | 1.99 µM | 11 µM | > 86 µM | > 88.8 µM | 14.1 µM | > 58.1 µM | 15 µM | 5.67 µM | 20.1 µM
CN1CCN(CCOc2cc(OC3CCOCC3)c3c(Nc4c(Cl)ccc5c4OCO5)ncnc3c2)CC1 | 26.7 µM and > 10 µM | 31.8 µM and > 10 µM | 30.2 µM and > 10 µM | 26.6 µM and > 10 µM | 24.1 µM and > 10 µM | 27.2 µM and > 10 µM | 4.52 µM and > 10 µM | 37.4 µM and > 10 µM | 65.6 µM and > 10 µM | 16.2 µM and > 10 µM | 5.48 µM and 8.53 µM | 16.6 µM and > 10 µM | 15.1 µM and > 10 µM | 4.18 µM and 3.26 µM | 4.47 µM and > 10 µM | 13.6 µM and > 10 µM | 0.529 µM and 1.37 µM | 9.63 µM and 5.98 µM | 18.6 µM and > 10 µM | 1.45 µM and 0.971 µM
COc1ccc(Cn2cc3c(c2-c2ccccc2)CCc2cnoc2-3)cc1N | > 100 µM | > 100 µM | > 100 µM | > 100 µM | > 100 µM | > 100 µM | 0.64 µM | 4.25 µM | 1.66 µM | > 100 µM | 0.433 µM | 0.273 µM | 10.2 µM | 0.15 µM | 0.602 µM | 0.247 µM | 0.0638 µM | 0.0528 µM | 0.115 µM | 0.766 µM
Nc1nc(N)c2cc(Sc3cccc(C(F)(F)F)c3)ccc2n1 | 15.9 µM | 5.25 µM | 3.36 µM | 12.7 µM | 5.38 µM | 7.61 µM | 14.4 µM | 4.71 µM | 4.77 µM | 1.82 µM |  |  | 1.27 µM |  |  |  | 2.17 µM |  |  | 0.307 µM
Cc1ccc(-c2nc(-c3cn(C)c4ncccc34)cs2)cc1 | 22 µM | 34 µM | 28 µM | 21.3 µM | 19.8 µM | 26.4 µM | 8.24 µM | 21.8 µM | 14.9 µM | 18.1 µM | 7.71 µM | 6.77 µM | 9.41 µM | 3.01 µM | 6.09 µM | 10.2 µM | 0.277 µM | 0.442 µM | 3.43 µM | 5.06 µM
Cc1cnc(Nc2ccc(N3CCN(C)CC3)cc2)nc1Nc1ccc(Cl)c(NS(=O)(=O)C(C)(C)C)c1 | 3.73 µM | 3.76 µM | 2.88 µM | 3.18 µM | 1.82 µM | 2.73 µM | 0.881 µM | 6.26 µM | 10.3 µM | 0.866 µM | 0.262 µM | 0.31 µM | 1.36 µM | 0.168 µM | 0.208 µM | 0.772 µM | 0.178 µM | 0.092 µM | 0.267 µM | 0.169 µM
CCOC(=O)c1ccc2c(c1)[n+](=O)c(C(C)=O)c(C(F)(F)F)n2[O-] | 3.54 µM | 5.22 µM | 3.5 µM | 3.22 µM | 3.21 µM | 10.1 µM | 3.16 µM | 0.625 µM | 2.86 µM | 3.12 µM | 1.66 µM | 1.89 µM | 1.76 µM | 1.4 µM | 1.67 µM | 2.87 µM | 1.33 µM | 0.197 µM | 1.46 µM | 1.47 µM
COc1cccc2c1C(=O)OC2c1cccc2ccccc12 (stereo not drawn) | 62.4 µM | > 100 µM | > 100 µM | > 100 µM | > 100 µM | > 100 µM | > 100 µM | > 100 µM | > 100 µM | > 100 µM |  |  |  |  |  |  |  |  |  | 
Cc1cccc(NC(=O)/C=C/c2ccc([N+](=O)[O-])cc2)c1 | 33.4 µM | 49.4 µM | > 55.1 µM | > 56.7 µM | > 51.2 µM | > 57.6 µM | > 100 µM | > 24.5 µM | > 64.5 µM | > 53 µM |  |  |  |  |  |  |  |  |  | 
Oc1[nH]c2ccccc2c1N=Nc1c(F)c(F)c(F)c(F)c1F | > 100 µM | > 100 µM | > 71.5 µM | > 100 µM | 50.5 µM | > 100 µM | > 100 µM | 14.4 µM | > 100 µM | > 66.7 µM |  |  |  |  |  |  |  |  |  | 
CCS(=O)(=O)c1ccc(OC)c(Nc2ncc(-c3ccccc3Cl)o2)c1 | > 25 µM | > 21.6 µM | > 25 µM | > 25 µM | > 25 µM | > 25 µM | 12.1 µM | > 25 µM | > 25 µM | > 25 µM | 10.1 µM | 9.06 µM | > 25 µM | 9.01 µM | > 17.4 µM | > 25 µM | 3.17 µM | 15.5 µM | > 17.7 µM | 9.15 µM
